{
  "source": "patent US12491183B2",
  "about": "“Compositions and methods of using nintedanib for treating ocular diseases with abnormal neovascularization” (ADS Therapeutics LLC, priority 2016, dated 2025)",
  "key": {"[1]": {"system": "suture-induced neovascularization in the rabbit cornea", "assay": "Rabbit cornea suture model of neovascularization", "type": "in vivo", "protocol": "Topical compositions comprising 0.2% or 0.05% nintedanib in 10% 2-hydroxypropyl beta cyclodextrin in phosphate buffer solution, pH 7.4 were prepared. Thirty female Zealand White rabbits were used to perform the study. Briefly, five sutures were placed in the upper cornea of the right eye of each animal on Day 1 to induce neovascularization. The animals were treated in both eyes with either drug, vehicle or saline as described in Table 1. [table] During the study, the animals were closely observed for various ocular indications as well as general physical conditions including body weight. Ocular images were taken on days 7, 10, 12, 14, 21, 28 for analysis of hyperemia. NIH ImageJ® software was used to analyze the ocular images. Each image was opened in ImageJ®, the scale was calibrated using the ruler in the photograph and the neovascularized area on the cornea near the suture was selected by the selection tool. The area in mm^2 was calculated by measurement tool in the software, recorded in excel and the image was captured and saved. […] The results were plotted as histograms of average with standard deviation for easy comparison."}, "[2]": {"system": "corneal graft rejection (C57BL/6 cornea transplanted onto BALB/c mice)", "assay": "Mouse corneal graft rejection model", "type": "in vivo", "conditions": "nintedanib 0.2% solution TID for 8 weeks vs vehicle solution", "from_the_text": "In this example, cornea of C57BL/6 mice would be transplanted onto BALB/c mice cornea as described (Sonoda et al. Invest Ophthalmol Vis Sci. 1995 February; 36(2):427-34; Invest Ophthalmol Vis Sci. 2000 March; 41(3):790-8; Yamagami et al. Invest Ophthalmol Vis Sci. 2001 May; 42(6): 1293-8). The suture would be removed on day 7 after transplant. The mice would be divided into two groups. Group 1 would be treated with the nintedanib 0.2% solution and group 2 with the vehicle solution. Treatment would start immediately after transplant, TID for 8 weeks. The corneal opacity and graft rejection will be assessed weekly for 8 weeks as described."}},
  "note": "“Also recorded” adds a separate entry of the source.",
  "data": [
    {"smiles": "COC(=O)c1ccc2c(c1)NC(=O)/C2=C(\\Nc1ccc(N(C)C(=O)CN2CCN(C)CC2)cc1)c1ccccc1", "note": "[nintedanib, Methyl (3Z)-3-{[(4-{methyl[(4-methylpiperazin-1-yl)acetyl]amino}phenyl)amino] (phenyl)methylidene}-2-oxo-2,3-dihydro-1H-indole-6-carboxylate]", "values": [
      {"measurement": "efficacy of TID dosing compared with BID dosing", "setting": "[1]; rabbit cornea suture model, topical ocular, TID vs BID", "value": "higher efficacy"},
      {"measurement": "efficacy of 0.2% nintedanib compared with 0.05% nintedanib", "setting": "[1]; rabbit cornea suture model, topical ocular, higher dose 0.2% vs 0.05%", "value": "better efficacy"},
      {"measurement": "effect on suture-induced corneal neovascularization (area of cornea neovascularization)", "setting": "[1]; rabbit, topical ocular 0.2% or 0.05% solution BID or TID days 8 to 15, vs vehicle, day 12 and day 14 after suture", "value": "reduced cornea neovascularization; also recorded: marked inhibitory effect; also recorded: strongly inhibited corneal neovascularization"},
      {"measurement": "survival of the graft (rejection rate)", "setting": "[2]", "value": "significantly increased survival of the graft"}
    ]}
  ]
}
